This note sets out measurements from PubChem BioAssay AID1508591.

Molecules are shown by their SMILES. A value given as a limit tells only on which side of the number the result lay.

The conditions of the data set: rat; liver microsomes; pH 7.4; 15.0 min; 1.0 µM.
In general, half-life refers to the time in which the quantity being followed falls by half. Take `CC(=O)O[C@H]1CC[C@]2(C)C(=CC[C@H]3[C@H]4C[C@H]5O[C@]6(CC[C@H](C)CN6)[C@H](C)[C@@H]5[C@]4(C)CC[C@@H]32)C1`: the half-life turned out to be 1.58 min.
The same measure for `Cc1cn2c(-c3cn[nH]c3)cnc2c(Nc2ccc(C(=O)N3CCNCC3)cc2F)n1`: 7 min; for `Cc1ccc(-c2cc(C(=O)Nc3ccc(S(N)(=O)=O)cc3)c3ccccc3n2)cc1C`: above 30 min.
The value for `Cc1sc2ncnc(Sc3nnnn3-c3ccccc3)c2c1-c1ccccc1` was 1.5 min; that for `Cc1cc(N)c2cc(NC(=O)Nc3ccc4nc(C)cc(N)c4c3)ccc2n1` was above 30 min; that for `COC(=O)Nc1nc2ccc(SC(C)C)cc2[nH]1` was 9.99 min.
The value for `Cc1cc(-c2ccc(C)c(S(=O)(=O)NCC3CCN(Cc4ccc(F)cc4)CC3)c2)on1` was 5.49 min; that for `CC[C@H](C)[C@@H]([C@@H](CC(=O)N1CCC[C@H]1[C@H](OC)[C@@H](C)C(=O)N[C@@H](Cc1ccccc1)c1nccs1)OC)N(C)C(=O)[C@@H](NC(=O)[C@H](C(C)C)N(C)C)C(C)C` was above 30 min; that for `CCOC(=O)c1[nH]c(C)c(CCC(=O)N2CCN(c3cccc(C)c3C)CC2)c1C` was 2.27 min.
In turn, `COc1cccc2c1CCCC2CCCN1CCN(C2CCCCC2)CC1` (centres undefined) registered a half-life of 3.39 min.
The same measure for `CC(=O)NCc1ccc(-c2csc(Nc3cccc(C)c3)n2)o1`: above 30 min; for `Cn1cc2c3c(cccc31)CN(C(=O)c1ccc(F)c(Cl)c1)CC2`: 1.88 min; for `OCc1ccc(-c2cc3c(ccn3Cc3cccnc3)c(C3=CCOCC3)n2)cc1`: 4.89 min.
The same measure for `Cc1noc(C)c1C(=O)N1CCC2(CCCN(C(c3ccccc3)c3ccccc3)C2)CC1`: 1.7 min.
The same measure for `NC(=O)C1CCN(c2ncc(-c3ccc4c(c3)OC(F)(F)O4)s2)CC1`: 9.4 min; for `Cc1ccc(NS(=O)(=O)c2ccc3[nH]c4c(c3c2)CCCCCC4)cc1`: 2.08 min.
Compound `CC(Nc1ncnc2c1cnn2-c1cccc(Cl)c1)c1ccccc1` (centres undefined) displayed a half-life of 23 min.
In the case of `CCn1c(=NC(=O)c2ccc(S(=O)(=O)N3CCCCC3)cc2)sc2cccc(OC)c21`, the half-life worked out at 9.5 min.
The value for `Cc1ccc(N(C)S(=O)(=O)c2ccc(-c3cnc(C4CC4)o3)cc2)cc1` was 3.6 min.
The same measure for `O=C(Nc1ncc([S+](=O)([O-])N2CCOCC2)s1)c1cccc(Br)c1`: 23 min; for `CC(C)c1ccccc1-c1ncc(F)c(NCC2CCN(c3cccnc3)CC2)n1`: 3 min; for `COc1ccc(-n2nc(C3CCCN(C(=O)C4CC4)C3)[nH]c2=O)cc1` (centres undefined): above 30 min.
The same measure for `Cc1ccc(S(=O)(=O)Nc2cnccc2C(=O)Nc2nc(-c3ccc(F)cc3)cs2)cc1`: above 30 min; for `Cc1ccnc(NC(=S)N2CCN(c3ccc(Cl)cc3Cl)CC2)c1`: above 30 min.
`CC(C)c1ccc(S(=O)(=O)c2cnc(SCC(=O)Nc3ccc4c(c3)OCCO4)[nH]c2=O)cc1` returned a half-life of 3.84 min.
The compound `CCOC(=O)c1c[nH]c2c3c(ccc2c1=O)CCCC3` returned a half-life of 20.4 min.
Consider `COc1ccc(NC(=O)c2[nH]c(C)cc2C)cc1S(=O)(=O)Nc1ccc(Br)cc1`, for which the half-life was above 30 min.
For `CC[C@H]1NC(=O)[C@@H](NC(=O)c2ncccc2O)[C@@H](C)OC(=O)[C@H](c2ccccc2)NC(=O)[C@@H]2CC(=O)CCN2C(=O)[C@H](Cc2ccccc2)N(C)C(=O)[C@@H]2CCCN2C1=O`, the half-life was above 30 min.
The value for `Cc1cc(-c2nnc3n2CCCCC3)c(C)n1-c1ccc(C#N)cc1` was 3.6 min; that for `Cc1cc(C)nc(NC(=S)N2CCN(c3cc(C(F)(F)F)nc4ccccc34)CC2)c1` was above 30 min; that for `O=C1Nc2ccc(Cl)cc2/C1=C\c1cc(Cl)c(O)c(Cl)c1` was above 30 min.
The same measure for `NC(=O)C1CCN(c2ncc(-c3cccc(F)c3)s2)CC1`: 9.48 min.
In turn, `Cc1nc2sccn2c(=O)c1S(=O)(=O)Nc1ccc(N2CCN(C)CC2)cc1` yielded a half-life of 17.8 min.
Turning to `CN(C)c1cccc(-c2nccc(N3CCC(C(N)=O)CC3)n2)c1`, the half-life was determined as 8.43 min.
